Eight compounds from ChEMBL document CHEMBL3352818, “Seizure prevention by the naturally occurring phenols, carvacrol and thymol in a partial seizure-psychomotor model” (Bioorg Med Chem Lett, 2014) can be followed below.

Usually ED50 stands for the dose that gives a 50% effect, or the effect in half of the subjects. What is called inhibition in vivo is the share of the control response that was lost under treatment. In general, TD50 refers to the 50% point of the dose-response relation for the toxic effect studied.

Data set [1] concerns Mus musculus. Description: Neurotoxicity in CF1 albino mouse seizure model at 100 mg/kg, ip after 1 hrs by rototod test. Format: toxicity, organism-based. Conditions: in vivo. Also noted: dose 100 mg/kg, route intraperitoneal.
Data set [2] relates to Mus musculus. Description: Anticonvulsant activity against CF1 albino mouse seizure model assessed as protection at 100 mg/kg, ip after 0.25 hrs by 6 Hz psychomotor seizure test. It is filed as functional, organism-based. Further details: dose 100 mg/kg.
Data set [3] concerns Mus musculus. Description: Neurotoxicity in CF1 albino mouse seizure model at 100 mg/kg, ip after 0.5 hrs by rototod test. Format: toxicity, organism-based. Also noted: dose 100 mg/kg, route intraperitoneal. As to conditions: in vivo.
Data set [4] concerns Mus musculus. Briefly: Anticonvulsant activity in CF1 albino mouse assessed as protection against maximal electroshock-induced seizures at 100 mg/kg, ip after 2 hrs. Format: functional, organism-based. Also noted: dose 100 mg/kg. A general note: Protection in the maximal electroshock model is a classic sign of anticonvulsant action.
Data set [5] deals with Mus musculus. Description: Neurotoxicity in CF1 albino mouse seizure model at 100 mg/kg, ip after 0.25 hrs by rototod test. As to conditions: in vivo. Format: toxicity, organism-based. Further details: dose 100 mg/kg, route intraperitoneal.
Data set [6] concerns Mus musculus. Description: Anticonvulsant activity in CF1 albino mouse assessed as protection against Li-pilocarpine-induced seizure at 65 mg/kg, ip. It is filed as functional, organism-based. Further details: dose 65 mg/kg.
The nature of data set [7]: Protective index, ratio of TD50 for CF1 albino mouse neurotoxicity to ED50 for protection against 6 Hz electroshock-induced seizure in CF1 albino mouse. Format: toxicity, organism-based. As to conditions: in vivo, read-out: Ratio TD50/ED50.
In data set [8] the test system is Mus musculus. Description: Anticonvulsant activity against CF1 albino mouse seizure model assessed as time to peak effect at 100 mg/kg, ip by 6 Hz psychomotor seizure test. It is filed as functional. As to conditions: route intraperitoneal.
Data set [9] deals with Mus musculus. Description: Anticonvulsant activity against ip dosed CF1 albino mouse seizure model after 4 hrs by 6 Hz psychomotor seizure test. It is filed as functional.
The subject of data set [10] is Mus musculus. Description: Neurotoxicity in CF1 albino mouse seizure model at 100 mg/kg, ip after 2 hrs by rototod test. Format: toxicity, organism-based. Further details: dose 100 mg/kg, route intraperitoneal. As to conditions: in vivo.
The subject of data set [11] is Mus musculus. Briefly: Anticonvulsant activity in CF1 albino mouse assessed as protection against pentylenetetrazole-induced seizure at 100 mg/kg, ip after 0.25 hrs by scMET test. Format: functional, organism-based. Also noted: dose 100 mg/kg.
In data set [12] the test system is Mus musculus. Description: Neurotoxicity in CF1 albino mouse seizure model assessed as time to peak toxic effect at 100 mg/kg, ip after 4 hr by rototod test. Format: toxicity, organism-based. Conditions: in vivo. Also noted: dose 100 mg/kg, route intraperitoneal.
Data set [13] relates to Mus musculus. Briefly: Anticonvulsant activity in CF1 albino mouse assessed as protection against pentylenetetrazole-induced seizure at 200 mg/kg, ip after 4 hrs by scMET test. It is filed as functional. As to conditions: route intraperitoneal.
Data set [14] relates to Mus musculus. Briefly: Anticonvulsant activity in CF1 albino mouse assessed as protection against maximal electroshock-induced seizures at 100 mg/kg, ip after 0.5 hrs. It is filed as functional, organism-based. Also noted: dose 100 mg/kg.
Data set [15] has as its system Mus musculus. Briefly: Anticonvulsant activity in CF1 albino mouse assessed as protection against maximal electroshock-induced seizures at 100 mg/kg, ip after 1 hrs. Format: functional, organism-based. Also noted: dose 100 mg/kg.
Data set [16] concerns Mus musculus. Briefly: Anticonvulsant activity against CF1 albino mouse seizure model assessed as protection at 100 mg/kg, ip after 0.5 hrs by 6 Hz psychomotor seizure test. Format: functional, organism-based. Further details: dose 100 mg/kg.
Data set [17] deals with Mus musculus. Description: Anticonvulsant activity in CF1 albino mouse assessed as protection against maximal electroshock-induced seizures at 100 mg/kg, ip after 4 hrs. It is filed as functional.
The test system of data set [18] is Mus musculus. Briefly: Anticonvulsant activity in CF1 albino mouse assessed as protection against pentylenetetrazole-induced seizure at 100 mg/kg, ip after 0.5 hrs by scMET test. It is filed as functional, organism-based. Further details: dose 100 mg/kg.
For data set [19], the system named is Mus musculus. Briefly: Neurotoxicity in CF1 albino mouse seizure model at 100 mg/kg, ip after 4 hrs by rototod test. Format: toxicity, organism-based. Further details: dose 100 mg/kg, route intraperitoneal. As to conditions: in vivo.
Data set [20] concerns Mus musculus. Description: Anticonvulsant activity in CF1 albino mouse assessed as protection against pentylenetetrazole-induced seizure at 100 mg/kg, ip after 2 hrs by scMET test. It is filed as functional, organism-based. Also noted: dose 100 mg/kg.
Data set [21] relates to Mus musculus. Briefly: Anticonvulsant activity in CF1 albino mouse assessed as protection against maximal electroshock-induced seizures at 100 mg/kg, ip after 0.25 hrs. It is filed as functional, organism-based. Further details: dose 100 mg/kg.
The nature of data set [22]: Neurotoxicity in ip dosed CF1 albino mouse seizure model after 4 hr by rototod test. As to conditions: in vivo. It is filed as toxicity, organism-based.
For data set [23], the system named is Mus musculus. Briefly: Anticonvulsant activity against CF1 albino mouse seizure model assessed as protection at 100 mg/kg, ip after 4 hrs by 6 Hz psychomotor seizure test. Also noted: dose 100 mg/kg. Format: functional, organism-based.
Data set [24] has as its system Mus musculus. Briefly: Reduction Li-pilocarpine-induced weight loss in protected CF1 albino mouse at 65 mg/kg, ip after 0.5 hrs. Also noted: dose 65 mg/kg. It is filed as functional, organism-based.
The test system of data set [25] is Mus musculus. Briefly: Reduction Li-pilocarpine-induced weight loss in non-protected CF1 albino mouse at 65 mg/kg, ip after 0.5 hrs. Further details: dose 65 mg/kg. Format: functional, organism-based.
Data set [26] relates to Mus musculus. Briefly: Anticonvulsant activity in CF1 albino mouse assessed as protection against pentylenetetrazole-induced seizure at 100 mg/kg, ip after 4 hrs by scMET test. Further details: dose 100 mg/kg. It is filed as functional, organism-based.
For data set [27], the system named is Mus musculus. Description: Anticonvulsant activity in CF1 albino mouse assessed as protection against pentylenetetrazole-induced seizure at 100 mg/kg, ip after 1 hrs by scMET test. Further details: dose 100 mg/kg. Format: functional, organism-based.
The test system of data set [28] is Mus musculus. Briefly: Anticonvulsant activity against CF1 albino mouse seizure model assessed as protection at 100 mg/kg, ip after 1 hrs by 6 Hz psychomotor seizure test. Further details: dose 100 mg/kg. Format: functional, organism-based.

Activity calls are given as the source filed them. No cut-off for these calls is given here.

For `Cc1ccc(C(C)C)cc1O` [CARVACROL], the Activity entry in data set [1], in data set [3], in data set [5], in [10] and in data set [19] was “Non-toxic” each time. For the same compound, the result in [2], in [4], in [6], in [11], in [14] and in data set [15] was inactive. Further, the outcome in data set [16], in data set [17], in data set [18], in [20] and in data set [21] was inactive. The selectivity ratio in data set [7] came out at 5.3. Also, the results for the Time in [8] and in data set [12] were 0.25 h and 6 h, respectively. In [9], it took a dose of 35.8 mg/kg to reach the 50% effect level (ED50). For the same compound, the inhibition in vivo at 200 mg/kg in data set [13] was found to be 40%. In addition, in data set [17] (route intraperitoneal), the inhibition in vivo at 100 mg/kg stood at 20%. The compound further displayed a TD50 at 4 h in [22] of 191 mg/kg.
With `Cc1ccc(C(C)C)c(O)c1` [THYMOL], the Activity result in [1], in data set [3], in data set [5], in data set [10] and in data set [19] was “Non-toxic” throughout. The outcome in data set [2] was Active. In addition, the outcome in data set [6], in data set [15] and in [23] was inactive. Also, the selectivity ratio in data set [7] stood at 3.4. For the same compound, the Time in data set [8] and in [12] was 0.25 h throughout. In addition, in data set [9], it took a dose of 35.8 mg/kg to reach the 50% effect level (ED50). Also, the TD50 at 4 h in data set [22] was 121 mg/kg.
On to `CC(C)c1cccc(C(C)C)c1O` [PROPOFOL], for which, in data set [7], the selectivity ratio is 1.1. Besides, in data set [9], the 50% effect level (ED50) was put at a dose of 32.8 mg/kg.
Take `CC(C)c1ccccc1O`: the Activity entry in [1], in data set [10] and in [19] was “Non-toxic” throughout. In addition, the inhibition result in data set [24] and in data set [25] was “inactive” each time. For the same compound, the outcome in [4], in data set [26], in data set [14], in data set [15], in [20] and in [21] was inactive. Moreover, the selectivity ratio in [7] came out at 2.8. The Time amounted to 0.25 h in data set [8] and 4 h in data set [12]. The compound further returned an ED50 in data set [9] of 49.9 mg/kg. The TD50 at 4 h in data set [22] is 142 mg/kg.
Turning to `CN1C(=O)OC(C)(C)C1=O` [TRIMETHADIONE], the selectivity ratio in data set [7] was found to be 3.8. In addition, the ED50 in [9] came to 218 mg/kg.
Take `Cc1ccc(C(C)C)cc1` [P-CYMENE]: the Time in data set [8] was 0.25 h. For the same compound, the ED50 in data set [9] turned out to be 51.3 mg/kg. Also, the Activity entry in data set [12] was “ND(toxic)”.
As to `CC(C)c1cccc(O)c1`, the Activity result in data set [3], in [5] and in data set [19] was “Non-toxic” each time. The result in data set [26], in [11], in data set [14], in data set [16], in data set [27] and in data set [20] was inactive. For the same compound, the result in data set [21] was inactive. Moreover, in data set [7], the selectivity ratio was found to be 2.4. Also, the Time in [8] is 0.25 h; in data set [12], 4 h. Moreover, the ED50 in [9] came out at 53.8 mg/kg. The outcome in [28] was Active. Further, in data set [22], the TD50 at 4 h came out at 129 mg/kg.
In data set [9], `NC(=O)N1c2ccccc2C=Cc2ccccc21` [CARBAMAZEPINE] yielded a 50% effective dose (ED50) of 47.9 mg/kg.
